Test results: patent US20260344665A1, “FUNGICIDAL COMPOUND” (priority 2022, published 2026)

Tests used:
Puccinia recondita = assay: Mixture with malonomicin, leaf disc, Puccinia recondita curative; format: in vivo; settings: foliar, 192 h, read-out: control of fungal growth
From the text: An additional ingredient having pesticidal activity, for instance fungicidal activity may result in an unexpected synergistic activity. […] The action to be expected E for a given active ingredient combination obeys the so-called COLBY formula and can be calculated as follows (COLBY, S. R. “Calculating synergistic and antagonistic responses of herbicide combination”. Weeds, Vol. 15, pages 20-22; 1967): • ppm=milligrams of active ingredient (=a.i.) per liter of spray mixture • X=% action by active ingredient A) using p ppm of active ingredient • Y=% action by active ingredient B) using q ppm of active ingredient.
According to COLBY, the expected (additive) action of active ingredients A)+B) using p+q ppm of active ingredient is:
In mathematical terms, synergism corresponds to a positive value for the difference of (O-E). In the case of purely complementary addition of activities (expected activity), said difference (O-E) is zero. A negative value of said difference (O-E) signals a loss of activity compared to the expected activity.
A stock solution for oligosaccharide compound according to the present invention was produced in water plus 0.025% Tween®20. Malonomicin was produced according to Law et al, 2018 (Nature Catalys is | VOL 1 | DECEMBER 2018 | 977-984). A stock solution of malonomicin was produced in water plus 0.025% Tween®20.
Assays to test efficacy of mixtures of the compound of Formula (I) in combination with malonomicin on the control of fungal pathogens in a leaf disc assay were designed for two 24 well plates.
Table 8 and 9: Outline of 24 well testplate (1) and testplate (2) including concentration of compounds sprayed per well. The upper number in the cell indicates the oligosaccharide compound of the present invention concentration (ppm), the lower number malonomicin concentration (ppm). Column (1) holds a dilution series of compound of Formula (I), row (2-D) hold a dilution series of malonomicin. Well 2-D-(1) represents an untreated check. This design was applied for tests including Puccinia recondita (EPPO code: PUCCRE) with preventive and curative spray timing.
A first set of master plates with 1× concentrated spray solution of the compound of Formula (I) stock diluted in water with concentrations according to Table 8, Table 9, Table 11 and Table 12, respectively, was prepared. Each well contained 0.025% Tween®20. Accordingly, a second set of master plates with 1× concentrated malonomicin stock diluted in water was prepared. Each well of the second set contained 0.025% Tween®20. Leaf segments placed on agar in 24 well plates are sprayed with 8 ul of solution from the master plate containing compound of Formula (I) and the leaf segments were let to dry, followed 2 hours later by 8 ul of solution from the master plate containing malonomicin. After second sprays have dried, leaf segments are infected with fungal spores to obtain a preventive application timing. Alternatively, leaf segments infected one day before spray of the compounds are used, resulting in a curative spray timing. In addition, several plates were produced where leaf segments were sprayed 2× in absence of test compound (with only Tween®20), representing the untreated check samples. For each leaf segment percent leaf coverage of disease symptoms was assessed. Percent leaf coverage reduction relative to the untreated check was calculated. Efficacy of the mixtures was tested in duplicate and on different fungal species. Reported efficacy values are the average of two replicate results.
Puccinia recondita (EPPO Code: PUCCRE) with Curative Spray Timing.
Wheat (cultivar Kanzler) leaf segments are placed on agar in multiwell plates (24-well format). The leaf disks are then inoculated with a spore suspension of the fungus. One day after inoculation the test solution is sprayed (8 ul per well). After appropriate incubation the activity of a compound is assessed 8 dpi (days after inoculation) as curative fungicidal activity

several fungal species = assay: Leaf disc or leaf segment tests, summary over several fungal species; format: in vivo; settings: foliar; leaf disc and leaf segment tests; read-out: concentration from which fungal growth is reduced
Description: Leaf disks or leaf segments of various plant species were cut from plants grown in the greenhouse. The cut leaf discs or segments were placed in multiwell plates (24-well format) onto water agar. The leaf disks were sprayed with a test solution before (preventative) or after (curative) inoculation. Compounds to be tested were prepared as water solutions (max. 10 mg/ml) which were diluted to the appropriate concentration with 0.025% Tween20 just before spraying. The inoculated leaf discs or segments were incubated under defined conditions (temperature, relative humidity, light, etc.) according to the respective test system. A single evaluation of disease level was carried out 3-9 days days after inoculation, depending on the pathosystem. Percent disease control relative to the untreated check leaf discs or segments was then calculated.
Wheat leaf segments cv. Kanzler were placed on agar in multiwell plates (24-well format) and sprayed with the formulated test compound diluted in water. […] The inoculated leaf segments were incubated at 19 °C and 75% rh under a light regime of 12 h light/12 h darkness in a climate cabinet and the activity of a compound was assessed as percent disease control compared to untreated leaf when an appropriate level of disease damage appeared in untreated check leaf segments (7-9 days after application). […]

CC(=O)NC1C(OCC(OC2OC(CO)C(O)C(O)C2O)C2OC(OC3C(O)C(CO)OC(OC4(CO)OC(C(O)CO)C(O)C4OC4OC(CO)C(O)C(O)C4O)C3O)C(O)C(O)C2OC2OC(C(O)CO)C(O)C(O)C2OC2OCC(OC(N)=O)C(O)C2O)OC(CO)C(O)C1O (centres unmarked) [compound of Formula (I)]
inhibition of growth at 3.13 µg/mL (Puccinia recondita; Formula (I) 3.13 ppm solo): 0% | inhibition of growth at 6.25 µg/mL (Puccinia recondita; Formula (I) 6.25 ppm solo): 0% | inhibition of growth at 12.5 µg/mL (Puccinia recondita; Formula (I) 12.5 ppm solo): 10% | inhibition of growth at 25 µg/mL (Puccinia recondita; Formula (I) 25 ppm solo): 10% | inhibition of growth at 50 µg/mL (Puccinia recondita; Formula (I) 50 ppm solo): 20% | inhibition of growth at 100 µg/mL (Puccinia recondita; Formula (I) 100 ppm solo): 70% | inhibition of growth at 200 µg/mL (Puccinia recondita; Formula (I) 200 ppm solo): 80% | minimal effective concentration (several fungal species): ≥ 22 µg/mL
